According to patent publication US10933141B2, “Formulations with reduced degradation of polysorbate” (Genentech, Inc., priority 2015, dated 2021):

Experiments:
[1] = Solubilization of particles from oxidative PS20 degradation (HIAC); assay type: physicochemical; details: 5% and 15% (w/v) HP-β-CD; 0.02% (w/v) PS20 stored 27 months at 5° C.
Description: Subvisible particles were measured using a HIAC 9703 particle counter equipped with an HRDL-150 detector and a 1 mL syringe. Performance of the instrument was verified with NIST-traceable 2 μm Polystyrene bead standards at 3000 counts/mL before each measurement session. The HIAC instrument was configured to a 10 mL/min flow rate, 0.1 mL tare volume, and 0.4 mL sample volume. The samples were analyzed using 4 runs of 0.4 mL sips, with the first run of each sample was discarded to prevent measurement error due to sample carryover. Results were reported as the average values for 1.4, 2, 5, 10, 15, and 25, 50 μm analysis filter sizes.
Different concentrations of HP-β-CD were tested for their ability to solubilize particles produced as a result of oxidative PS20 degradation. Solutions of concentrated HP-β-CD were prepared in triplicate in pH 5.5 buffer. Protein-free samples containing 0.02% (w/v) PS20 were stored for 27 months at 5° C., resulting in oxidative PS20 degradation and the formation of visible and subvisible particles related to PS20 degradation products. Each degraded PS20 solution was divided into 3 aliquots and concentrated excipient was spiked into each the aliquots. […] The following day, subvisible particle counts were measured using a HIAC 9703 particle counter.

[2] = test system: Lipoprotein Lipase (LPL); assay: Enzymatic degradation of PS20 by LPL, PS20 by RP-ELSD; assay type: biochemical, Burkholderia sp.; details: 15% w/v HP-β-CD; 0.02% PS20, pH 5.5; 70 μg/mL LPL, 5 hours, room temperature
Description: Polysorbate concentration was determined using reverse phase ultra-performance liquid chromatography using evaporative light scattering detection (RP-ELSD). Samples were analyzed using an Agilent 1100 series high performance liquid chromatography system (HPLC) fitted with a Waters Oasis MAX cartridge column (20×2.1 mm, 30 μm particle size). The HPLC system was set up with a switching valve directing column flow-through to either waste or a Varian 380-LC evaporative light scattering detector set to 100° C. The mobile phases consisted of 2% formic acid in water (Pump A) and 2% formic acid in isopropanol (Pump B). […] In order to quantitate the PS20 concentration, a standard curve was generated by injecting 20 μL of solutions containing between 0% w/v and 0.4% w/v PS20. For excipients which affected the migration time of PS20 through the column, PS20 standard curve solutions containing the relevant excipient were included in the analysis to facilitate accurate quantitation.
The effect of 15% HP-β-CD on the enzymatic degradation of PS20 was measured. […]
PPL digestion was stopped by heat inactivation in an 85° C. water bath for 30 minutes. LPL and RLE digestion could not be stopped by heat inactivation, so the samples were analyzed immediately for PS20 content. […]

Question: With “2-hydroxypropyl-β-cyclodextrin [HP-β-CD]” as the substance, how does the “SVP relative to control sample (0% HP-β-CD)” value [1] read?
Answer: significant reduction in SVP

Question: And the “Polysorbate 20 (Relative %)” value [2]?
Answer: 77.5%
